Measurements reported in PubChem BioAssay (NCI).
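Briefly, cells in 96-well plates were exposed to five compound concentrations for 48 h, and endpoints were estimated by linear interpolation. GI50 is the concentration that inhibits growth by half. TGI denotes the concentration required for complete inhibition of growth.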

Assays:
Experiment in all cases: growth of human tumour cells (NCI), 48 h
[1] = test system: NCI-H23 lung
[2] = test system: UACC-62 melanoma
[3] = test system: SF-268 CNS
[4] = test system: COLO 205 colon
[5] = test system: CAKI-1 renal
[6] = test system: NCI-H522 lung
[7] = test system: HL-60(TB) leukemia
[8] = test system: HS 578T breast
[9] = test system: MOLT-4 leukemia
[10] = test system: M14 melanoma
[11] = test system: SK-MEL-5 melanoma
[12] = test system: SK-MEL-2 melanoma
[13] = test system: NCI-H226 lung
[14] = test system: ACHN renal
[15] = test system: PC-3 prostate
[16] = test system: DU-145 prostate
[17] = test system: NCI/ADR-RES ovarian
[18] = test system: HCC-2998 colon
[19] = test system: BT-549 breast
[20] = test system: CCRF-CEM leukemia
[21] = test system: NCI-H460 lung
[22] = test system: MDA-MB-435
[23] = test system: OVCAR-8 ovarian
[24] = test system: RPMI-8226 leukemia
[25] = test system: OVCAR-5 ovarian
[26] = test system: HCT-116 colon
[27] = test system: TK-10 renal
[28] = test system: OVCAR-4 ovarian
[29] = test system: HOP-92 NSCLC
[30] = test system: SK-OV-3 ovarian
[31] = test system: MDA-MB-468 breast
[32] = test system: IGROV1 ovarian
[33] = test system: SK-MEL-28 melanoma
[34] = test system: HCT-15 colon
[35] = test system: EKVX NSCLC
[36] = test system: MDA-MB-231 breast
[37] = test system: MCF7 breast
[38] = test system: LOX IMVI melanoma
[39] = test system: HOP-62 NSCLC
[40] = test system: HT29 colon
[41] = test system: K-562 leukemia
[42] = test system: SNB-19 CNS
[43] = test system: RXF 393 renal
[44] = test system: U251 CNS
[45] = test system: SN12C renal
[46] = test system: UACC-257 melanoma
[47] = test system: 786-0 renal
[48] = test system: A498 renal
[49] = test system: OVCAR-3 ovarian
[50] = test system: A549 NSCLC
[51] = test system: SF-295 CNS
[52] = test system: SNB-75 CNS
[53] = test system: UO-31 renal
[54] = test system: KM12 colon
[55] = test system: MALME-3M melanoma
[56] = test system: SW-620 colon
[57] = test system: T-47D breast
[58] = test system: SF-539 CNS
[59] = test system: SR leukemia

Cn1cc(-c2cc(N)n3nc(-c4cn(C)c5ncc(Br)cc45)cc3n2)c2cc(Br)cnc21 gave a GI50 [1] of 1.92 µM, a TGI [1] of 3.76 µM and a GI50 [2] of 1.58 µM. The TGI [2] was 3.03 µM, the GI50 [3] was 7.52 µM and the TGI [3] was 38 µM. For the same molecule, the GI50 [4] was 4.29 µM, the TGI [4] was 31.8 µM and the GI50 [5] was 3.68 µM. For the same molecule, the TGI [5] was 15.4 µM, the GI50 [6] was 2.27 µM and the TGI [6] was 5.52 µM. It also gave a GI50 [7] of 2 µM, a TGI [7] of 4.94 µM and a GI50 [8] of 3.19 µM. The TGI [8] was 15.7 µM, the GI50 [9] was 1.53 µM and the TGI [9] was 4.37 µM. It also gave a GI50 [10] of 1.65 µM, a TGI [10] of 3.16 µM and a GI50 [11] of 3.95 µM. For the same molecule, the TGI [11] was 16.8 µM, the GI50 [12] was 2.01 µM and the TGI [12] was 4.4 µM. For the same molecule, the GI50 [13] was 8.32 µM, the TGI [13] was 26.4 µM and the GI50 [14] was 1.96 µM. It also gave a TGI [14] of 3.72 µM, a GI50 [15] of 2.49 µM and a TGI [15] of 8.41 µM. It also gave a GI50 [16] of 2.54 µM, a TGI [16] of 6.77 µM and a GI50 [17] of 2.04 µM. For the same molecule, the TGI [17] was 4.7 µM, the GI50 [18] was 1.73 µM and the TGI [18] was 3.44 µM. It also gave a GI50 [19] of 3.38 µM, a TGI [19] of 14.1 µM and a GI50 [20] of 1.43 µM. For the same molecule, the TGI [20] was 3.72 µM, the GI50 [21] was 1.91 µM and the TGI [21] was 3.89 µM. The GI50 [22] was 1.95 µM, the TGI [22] was 4.29 µM and the GI50 [23] was 2.49 µM. The TGI [23] was 6.67 µM, the GI50 [24] was 2.23 µM and the TGI [24] was 5.87 µM. The GI50 [25] was 10.5 µM, the TGI [25] was 33.9 µM and the GI50 [26] was 1.72 µM. The TGI [26] was 3.3 µM, the GI50 [27] was 1.79 µM and the TGI [27] was 4.03 µM. The GI50 [28] was 2.11 µM, the TGI [28] was 4.57 µM and the GI50 [29] was 1.71 µM. It also gave a TGI [29] of 6.42 µM, a GI50 [30] of 19.1 µM and a TGI [30] of 36.4 µM. For the same molecule, the GI50 [31] was 1.54 µM, the TGI [31] was 2.95 µM and the GI50 [32] was 4.65 µM. The TGI [32] was 18.5 µM, the GI50 [33] was 1.77 µM and the TGI [33] was 3.35 µM. For the same molecule, the GI50 [34] was 1.59 µM, the TGI [34] was 3.24 µM and the GI50 [35] was 2.18 µM. For the same molecule, the TGI [35] was 8.92 µM, the GI50 [36] was 2.59 µM and the TGI [36] was 9.79 µM. The GI50 [37] was 1.72 µM, the TGI [37] was 4.12 µM and the GI50 [38] was 1.59 µM. It also gave a TGI [38] of 2.96 µM, a GI50 [39] of 2.36 µM and a TGI [39] of 6.63 µM. It also gave a GI50 [40] of 1.8 µM, a TGI [40] of 3.44 µM and a GI50 [41] of 2.34 µM. The TGI [41] was 8.45 µM, the GI50 [42] was 1.95 µM and the TGI [42] was 4.05 µM. For the same molecule, the GI50 [43] was 2.62 µM, the TGI [43] was 6.9 µM and the GI50 [44] was 1.93 µM. For the same molecule, the TGI [44] was 3.89 µM, the GI50 [45] was 10.6 µM and the TGI [45] was 34.9 µM. It also gave a GI50 [46] of 2.28 µM, a TGI [46] of 5.33 µM and a GI50 [47] of 1.77 µM. It also gave a TGI [47] of 3.46 µM, a GI50 [48] greater than 100 µM and a TGI [48] greater than 100 µM. It also gave a GI50 [49] of 1.72 µM, a TGI [49] of 3.21 µM and a GI50 [50] of 2.07 µM. The TGI [50] was 4.97 µM, the GI50 [51] was 1.86 µM and the TGI [51] was 4.02 µM. The GI50 [52] was 8.48 µM, the TGI [52] was 26.3 µM and the GI50 [53] was 6.81 µM. It also gave a TGI [53] of 22.1 µM, a GI50 [54] of 1.83 µM and a TGI [54] of 5.81 µM. It also gave a GI50 [55] of 1.93 µM, a TGI [55] of 3.49 µM and a GI50 [56] of 1.77 µM. For the same molecule, the TGI [56] was 3.59 µM, the GI50 [57] was 2.35 µM and the TGI [57] was 9.43 µM. For the same molecule, the GI50 [58] was 1.71 µM and the TGI [58] was 3.18 µM.

O=C(CN1CCN(c2ncnc3c2cnn3-c2ccccc2)CC1)Nc1nncs1 was tested, and the GI50 [1] was 1.74 µM, the TGI [1] was 3.57 µM and the GI50 [2] was 4.97 µM. It also gave a TGI [2] of 18.7 µM, a GI50 [3] of 4.79 µM and a TGI [3] of 19.3 µM. It also gave a GI50 [4] of 14 µM, a TGI [4] of 27 µM and a GI50 [5] of 1.6 µM. The TGI [5] was 2.97 µM, the GI50 [6] was 1.62 µM and the TGI [6] was 3.09 µM. The GI50 [7] was 10.4 µM, the TGI [7] was 39.5 µM and the GI50 [8] was 12.4 µM. It also gave a TGI [8] of 63 µM, a GI50 [9] of 4.08 µM and a TGI [9] of 31.3 µM. For the same molecule, the GI50 [10] was 4.17 µM, the TGI [10] was 16.2 µM and the GI50 [11] was 10.2 µM. The TGI [11] was 21.9 µM, the GI50 [12] was 12.6 µM and the TGI [12] was 25.8 µM. The GI50 [13] was 1.84 µM, the TGI [13] was 5.14 µM and the GI50 [14] was 1.79 µM. For the same molecule, the TGI [14] was 3.18 µM, the GI50 [15] was 4.33 µM and the TGI [15] was 17.1 µM. For the same molecule, the GI50 [16] was 1.8 µM, the TGI [16] was 3.24 µM and the GI50 [17] was 1.77 µM. It also gave a TGI [17] of 3.69 µM, a GI50 [18] of 13.6 µM and a TGI [18] of 26.4 µM. The GI50 [19] was 1.55 µM, the TGI [19] was 3.02 µM and the GI50 [20] was 2.55 µM. It also gave a TGI [20] of 7.17 µM, a GI50 [59] of 2.11 µM and a TGI [59] of 5.26 µM. For the same molecule, the GI50 [21] was 4.25 µM, the TGI [21] was 14.7 µM and the GI50 [22] was 13.6 µM. For the same molecule, the TGI [22] was 27.5 µM, the GI50 [23] was 1.93 µM and the TGI [23] was 4.02 µM. For the same molecule, the GI50 [24] was 2.83 µM, the TGI [24] was 8.67 µM and the GI50 [25] was 6.41 µM. It also gave a TGI [25] of 19.3 µM, a GI50 [26] of 3.75 µM and a TGI [26] of 14.5 µM. The GI50 [27] was 3.09 µM, the TGI [27] was 6.14 µM and the GI50 [28] was 10.3 µM. The TGI [28] was 28.1 µM, the GI50 [29] was 1.57 µM and the TGI [29] was 3.46 µM. For the same molecule, the GI50 [30] was 12.5 µM, the TGI [30] was 25 µM and the GI50 [31] was 3.05 µM. It also gave a TGI [31] of 13.7 µM, a GI50 [32] of 2.68 µM and a TGI [32] of 7.65 µM. For the same molecule, the GI50 [33] was 13.9 µM, the TGI [33] was 26.9 µM and the GI50 [34] was 1.79 µM. It also gave a TGI [34] of 3.42 µM, a GI50 [35] of 2.9 µM and a TGI [35] of 11.1 µM. It also gave a GI50 [36] of 1.78 µM, a TGI [36] of 3.87 µM and a GI50 [37] of 4.32 µM. The TGI [37] was 18 µM, the GI50 [38] was 1.49 µM and the TGI [38] was 2.81 µM. It also gave a GI50 [39] of 1.62 µM, a TGI [39] of 3.29 µM and a GI50 [40] of 6.91 µM. It also gave a TGI [40] of 19.3 µM, a GI50 [41] of 7.91 µM and a TGI [41] of 36.6 µM. It also gave a GI50 [42] of 12.2 µM, a TGI [42] of 24.6 µM and a GI50 [43] of 1.68 µM. For the same molecule, the TGI [43] was 3.31 µM, the GI50 [44] was 1.92 µM and the TGI [44] was 3.99 µM. It also gave a GI50 [45] of 1.94 µM, a TGI [45] of 5.06 µM and a GI50 [46] of 14.1 µM. It also gave a TGI [46] of 28.1 µM, a GI50 [47] of 1.99 µM and a TGI [47] of 3.56 µM. For the same molecule, the GI50 [48] was 18.4 µM, the TGI [48] was 35 µM and the GI50 [49] was 1.93 µM. The TGI [49] was 3.67 µM, the GI50 [50] was 2.07 µM and the TGI [50] was 4.31 µM. For the same molecule, the GI50 [51] was 10.3 µM, the TGI [51] was 22.3 µM and the GI50 [52] was 15.1 µM. It also gave a TGI [52] of 30.5 µM, a GI50 [53] of 1.17 µM and a TGI [53] of 2.39 µM. For the same molecule, the GI50 [54] was 4.46 µM, the TGI [54] was 15.9 µM and the GI50 [55] was 1.69 µM. For the same molecule, the TGI [55] was 3.3 µM, the GI50 [56] was 4.99 µM and the TGI [56] was 16.1 µM. It also gave a GI50 [57] of 7.93 µM, a TGI [57] of 24.1 µM and a GI50 [58] of 1.76 µM. The TGI [58] was 3.32 µM.
